Experimental data: publication PMC8217266 (Clinical Pharmacology and Therapeutics, 2021)
Marks after values point to notes of the source that are not given here.

How the values were obtained:
[1] = biological target: T1, human OAT3 (Homo sapiens, UniProt Q8TCC7); assay: cell-based
T1 sequence (Q8TCC7 1-542): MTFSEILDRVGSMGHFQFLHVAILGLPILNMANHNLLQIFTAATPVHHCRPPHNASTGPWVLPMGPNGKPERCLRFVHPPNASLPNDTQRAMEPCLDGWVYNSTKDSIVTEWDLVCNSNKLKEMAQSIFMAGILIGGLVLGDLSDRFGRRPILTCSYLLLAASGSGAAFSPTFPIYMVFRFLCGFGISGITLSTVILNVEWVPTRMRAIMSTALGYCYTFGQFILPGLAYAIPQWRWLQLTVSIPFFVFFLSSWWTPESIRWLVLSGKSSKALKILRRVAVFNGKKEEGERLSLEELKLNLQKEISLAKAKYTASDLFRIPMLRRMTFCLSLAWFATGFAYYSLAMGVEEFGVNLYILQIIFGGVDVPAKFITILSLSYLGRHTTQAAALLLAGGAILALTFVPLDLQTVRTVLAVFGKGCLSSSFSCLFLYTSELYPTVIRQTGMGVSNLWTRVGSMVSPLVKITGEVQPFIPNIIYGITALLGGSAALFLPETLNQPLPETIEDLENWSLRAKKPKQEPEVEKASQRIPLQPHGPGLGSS

[2] = biological target: human MATE2 (Homo sapiens, UniProt Q86VL8); assay: cell-based
[3] = biological target: T2, human OCT1 (Homo sapiens, UniProt O15245); settings: human
T2 sequence (O15245 1-554): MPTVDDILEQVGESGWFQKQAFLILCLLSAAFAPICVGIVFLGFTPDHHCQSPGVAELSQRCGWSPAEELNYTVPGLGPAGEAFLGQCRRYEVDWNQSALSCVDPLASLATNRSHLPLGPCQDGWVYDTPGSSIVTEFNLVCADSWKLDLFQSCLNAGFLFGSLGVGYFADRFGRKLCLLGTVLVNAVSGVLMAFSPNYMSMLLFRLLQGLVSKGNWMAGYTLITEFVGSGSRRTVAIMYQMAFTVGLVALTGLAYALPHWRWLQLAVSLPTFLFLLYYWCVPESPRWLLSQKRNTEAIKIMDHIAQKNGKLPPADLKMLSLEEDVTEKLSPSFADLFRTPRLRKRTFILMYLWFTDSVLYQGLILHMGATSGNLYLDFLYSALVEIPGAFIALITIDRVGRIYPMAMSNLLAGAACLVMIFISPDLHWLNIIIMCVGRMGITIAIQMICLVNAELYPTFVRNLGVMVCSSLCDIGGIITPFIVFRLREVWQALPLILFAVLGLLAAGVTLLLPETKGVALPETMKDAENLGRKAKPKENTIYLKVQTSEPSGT

[4] = biological target: P-gp (Homo sapiens, UniProt P08183); assay: biochemical
[5] = biological target: T3, BCRP (Homo sapiens, UniProt Q9UNQ0); assay: biochemical
T3 sequence (Q9UNQ0 1-655): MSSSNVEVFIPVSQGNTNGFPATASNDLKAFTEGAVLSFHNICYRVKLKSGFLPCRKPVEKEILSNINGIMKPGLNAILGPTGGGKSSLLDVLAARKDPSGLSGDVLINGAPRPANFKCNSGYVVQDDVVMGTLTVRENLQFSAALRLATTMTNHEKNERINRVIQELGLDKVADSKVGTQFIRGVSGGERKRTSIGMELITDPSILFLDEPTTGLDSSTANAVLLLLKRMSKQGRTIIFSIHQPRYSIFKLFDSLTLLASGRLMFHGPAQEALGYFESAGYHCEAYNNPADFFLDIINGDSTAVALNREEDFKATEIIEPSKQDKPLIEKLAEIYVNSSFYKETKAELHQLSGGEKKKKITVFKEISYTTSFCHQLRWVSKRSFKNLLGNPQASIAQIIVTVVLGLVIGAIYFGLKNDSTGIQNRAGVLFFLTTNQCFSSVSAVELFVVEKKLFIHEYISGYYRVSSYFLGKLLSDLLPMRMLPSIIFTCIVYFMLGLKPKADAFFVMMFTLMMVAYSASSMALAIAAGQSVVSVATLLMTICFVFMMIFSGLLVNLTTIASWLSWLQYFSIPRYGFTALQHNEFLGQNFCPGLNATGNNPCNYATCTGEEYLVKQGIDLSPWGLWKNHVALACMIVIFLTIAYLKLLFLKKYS

[6] = biological target: T4, human MATE1 (Homo sapiens, UniProt Q96FL8); assay: cell-based
T4 sequence (Q96FL8 1-570): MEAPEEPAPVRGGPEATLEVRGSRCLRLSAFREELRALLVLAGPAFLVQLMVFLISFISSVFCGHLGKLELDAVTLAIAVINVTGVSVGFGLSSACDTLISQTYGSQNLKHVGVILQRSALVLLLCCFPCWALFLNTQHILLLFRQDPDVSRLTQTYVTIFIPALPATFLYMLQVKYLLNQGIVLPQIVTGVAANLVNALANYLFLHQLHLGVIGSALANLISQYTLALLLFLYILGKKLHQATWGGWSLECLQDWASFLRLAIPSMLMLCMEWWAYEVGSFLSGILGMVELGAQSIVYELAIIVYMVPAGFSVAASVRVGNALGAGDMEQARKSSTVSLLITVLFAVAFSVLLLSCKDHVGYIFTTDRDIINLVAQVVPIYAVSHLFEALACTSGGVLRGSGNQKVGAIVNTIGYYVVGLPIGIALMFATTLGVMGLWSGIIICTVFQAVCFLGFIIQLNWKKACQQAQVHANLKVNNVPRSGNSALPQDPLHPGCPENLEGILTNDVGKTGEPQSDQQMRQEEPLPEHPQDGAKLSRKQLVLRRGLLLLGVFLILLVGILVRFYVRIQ

[7] = biological target: T2, human OCT1; assay: cell-based
[8] = system: transporters at major organ sites; assay: Prediction of transporter-mediated inhibition / DDI potential; design: species or system human; settings: of 11 transporters; FDA criteria
[9] = biological target: T5, human OAT1 (Homo sapiens, UniProt Q4U2R8); assay: cell-based
T5 sequence (Q4U2R8 1-563): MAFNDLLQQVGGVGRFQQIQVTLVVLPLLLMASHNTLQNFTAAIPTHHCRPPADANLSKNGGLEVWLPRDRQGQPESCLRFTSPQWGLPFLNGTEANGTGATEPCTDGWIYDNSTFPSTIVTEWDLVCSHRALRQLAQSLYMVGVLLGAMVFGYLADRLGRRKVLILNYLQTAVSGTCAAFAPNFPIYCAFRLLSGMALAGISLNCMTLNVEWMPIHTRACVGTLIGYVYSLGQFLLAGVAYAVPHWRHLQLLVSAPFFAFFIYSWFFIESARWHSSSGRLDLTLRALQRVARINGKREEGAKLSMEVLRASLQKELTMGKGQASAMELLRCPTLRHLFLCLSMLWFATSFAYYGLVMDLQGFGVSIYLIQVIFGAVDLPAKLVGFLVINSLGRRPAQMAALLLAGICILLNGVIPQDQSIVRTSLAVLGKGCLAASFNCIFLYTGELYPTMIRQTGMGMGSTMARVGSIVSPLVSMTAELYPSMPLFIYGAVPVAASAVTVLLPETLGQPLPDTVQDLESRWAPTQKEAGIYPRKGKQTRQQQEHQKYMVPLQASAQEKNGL

[10] = biological target: T6, human OATP2B1 (Homo sapiens, UniProt O94956); assay: cell-based; settings: IC50 OATP2B1, experimental, mean ± SD; stable cells; substrate ES
T6 sequence (O94956 1-709): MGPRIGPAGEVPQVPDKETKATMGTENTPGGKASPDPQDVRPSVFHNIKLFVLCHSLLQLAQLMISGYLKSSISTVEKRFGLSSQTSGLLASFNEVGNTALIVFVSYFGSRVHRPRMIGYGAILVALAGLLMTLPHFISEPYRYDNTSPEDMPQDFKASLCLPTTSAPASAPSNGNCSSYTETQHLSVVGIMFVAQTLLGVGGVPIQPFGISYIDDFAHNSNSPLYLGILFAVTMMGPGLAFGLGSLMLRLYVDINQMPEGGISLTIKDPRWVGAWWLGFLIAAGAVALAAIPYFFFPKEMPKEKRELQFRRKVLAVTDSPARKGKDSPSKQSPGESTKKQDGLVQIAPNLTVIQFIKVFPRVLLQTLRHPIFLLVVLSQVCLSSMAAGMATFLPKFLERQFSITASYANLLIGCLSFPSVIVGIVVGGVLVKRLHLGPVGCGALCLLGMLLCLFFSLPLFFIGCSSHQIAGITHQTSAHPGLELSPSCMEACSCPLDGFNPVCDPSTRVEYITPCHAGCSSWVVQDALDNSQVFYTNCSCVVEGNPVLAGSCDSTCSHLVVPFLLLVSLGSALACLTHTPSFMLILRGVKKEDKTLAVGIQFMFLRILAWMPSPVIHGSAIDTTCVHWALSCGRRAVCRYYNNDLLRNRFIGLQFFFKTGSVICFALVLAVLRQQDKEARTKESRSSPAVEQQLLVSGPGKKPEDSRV

[11] = biological target: T1, human OAT3; settings: human
[12] = biological target: T7, human OATP1B1 (Homo sapiens, UniProt Q9Y6L6); settings: inhibits EG at one-tenth (or lower) the concentration that inhibits ES
T7 sequence (Q9Y6L6 1-691): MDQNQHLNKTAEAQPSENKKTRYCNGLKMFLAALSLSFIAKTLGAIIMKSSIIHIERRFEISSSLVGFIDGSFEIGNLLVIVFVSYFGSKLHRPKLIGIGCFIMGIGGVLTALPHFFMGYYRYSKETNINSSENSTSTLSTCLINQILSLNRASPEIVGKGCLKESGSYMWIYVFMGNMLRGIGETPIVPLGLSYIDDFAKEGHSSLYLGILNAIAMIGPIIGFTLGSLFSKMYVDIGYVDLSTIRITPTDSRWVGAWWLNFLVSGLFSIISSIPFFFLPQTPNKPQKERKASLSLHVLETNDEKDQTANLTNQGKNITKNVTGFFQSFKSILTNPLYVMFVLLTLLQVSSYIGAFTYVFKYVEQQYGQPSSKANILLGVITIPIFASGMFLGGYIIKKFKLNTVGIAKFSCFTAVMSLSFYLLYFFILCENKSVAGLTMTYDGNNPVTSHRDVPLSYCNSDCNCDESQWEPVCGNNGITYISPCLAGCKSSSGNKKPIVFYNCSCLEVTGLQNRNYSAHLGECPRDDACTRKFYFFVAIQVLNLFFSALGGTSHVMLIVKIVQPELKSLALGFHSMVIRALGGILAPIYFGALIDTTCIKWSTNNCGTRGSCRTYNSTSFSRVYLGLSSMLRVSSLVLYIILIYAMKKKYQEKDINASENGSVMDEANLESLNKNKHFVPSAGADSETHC

[13] = known in vivo P-gp inhibitor; cited from earlier work
[14] = biological target: T3, BCRP; settings: cited from earlier work

Sequence of P-gp (P08183 whole entry): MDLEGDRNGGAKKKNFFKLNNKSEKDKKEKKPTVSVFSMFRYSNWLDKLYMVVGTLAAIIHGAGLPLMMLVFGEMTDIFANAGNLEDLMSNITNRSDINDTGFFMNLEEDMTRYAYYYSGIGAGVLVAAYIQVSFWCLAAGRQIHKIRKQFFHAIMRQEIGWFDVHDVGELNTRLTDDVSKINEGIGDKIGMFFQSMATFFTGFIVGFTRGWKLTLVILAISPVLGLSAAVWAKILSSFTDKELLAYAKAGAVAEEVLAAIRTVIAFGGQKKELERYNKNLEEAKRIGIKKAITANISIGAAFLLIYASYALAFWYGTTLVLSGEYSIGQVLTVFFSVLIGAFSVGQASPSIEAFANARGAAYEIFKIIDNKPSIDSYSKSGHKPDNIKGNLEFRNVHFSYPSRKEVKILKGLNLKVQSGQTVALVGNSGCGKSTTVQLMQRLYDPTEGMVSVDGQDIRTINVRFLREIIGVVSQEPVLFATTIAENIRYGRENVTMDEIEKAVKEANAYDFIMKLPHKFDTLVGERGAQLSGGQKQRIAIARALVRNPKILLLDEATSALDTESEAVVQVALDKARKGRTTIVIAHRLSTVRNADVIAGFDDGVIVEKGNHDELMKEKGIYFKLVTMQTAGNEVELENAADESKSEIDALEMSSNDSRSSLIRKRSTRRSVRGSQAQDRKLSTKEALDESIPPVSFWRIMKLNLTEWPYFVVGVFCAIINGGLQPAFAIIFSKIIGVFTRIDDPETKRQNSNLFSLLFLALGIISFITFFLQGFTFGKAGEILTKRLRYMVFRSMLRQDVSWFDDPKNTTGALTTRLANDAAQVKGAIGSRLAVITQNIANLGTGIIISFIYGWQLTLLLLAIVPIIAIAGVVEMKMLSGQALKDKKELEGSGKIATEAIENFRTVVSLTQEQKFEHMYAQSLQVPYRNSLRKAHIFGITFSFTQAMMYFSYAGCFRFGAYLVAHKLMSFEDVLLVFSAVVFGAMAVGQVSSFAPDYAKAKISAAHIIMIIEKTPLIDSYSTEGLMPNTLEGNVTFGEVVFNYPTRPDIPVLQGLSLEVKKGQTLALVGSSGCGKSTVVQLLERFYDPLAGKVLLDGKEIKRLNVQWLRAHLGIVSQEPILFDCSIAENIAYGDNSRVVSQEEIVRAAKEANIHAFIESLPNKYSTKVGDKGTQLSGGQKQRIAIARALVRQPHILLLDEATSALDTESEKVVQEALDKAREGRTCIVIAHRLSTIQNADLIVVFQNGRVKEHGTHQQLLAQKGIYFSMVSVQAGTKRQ
Sequence of human MATE2 (Q86VL8 1-566 isoform Q86VL8-3): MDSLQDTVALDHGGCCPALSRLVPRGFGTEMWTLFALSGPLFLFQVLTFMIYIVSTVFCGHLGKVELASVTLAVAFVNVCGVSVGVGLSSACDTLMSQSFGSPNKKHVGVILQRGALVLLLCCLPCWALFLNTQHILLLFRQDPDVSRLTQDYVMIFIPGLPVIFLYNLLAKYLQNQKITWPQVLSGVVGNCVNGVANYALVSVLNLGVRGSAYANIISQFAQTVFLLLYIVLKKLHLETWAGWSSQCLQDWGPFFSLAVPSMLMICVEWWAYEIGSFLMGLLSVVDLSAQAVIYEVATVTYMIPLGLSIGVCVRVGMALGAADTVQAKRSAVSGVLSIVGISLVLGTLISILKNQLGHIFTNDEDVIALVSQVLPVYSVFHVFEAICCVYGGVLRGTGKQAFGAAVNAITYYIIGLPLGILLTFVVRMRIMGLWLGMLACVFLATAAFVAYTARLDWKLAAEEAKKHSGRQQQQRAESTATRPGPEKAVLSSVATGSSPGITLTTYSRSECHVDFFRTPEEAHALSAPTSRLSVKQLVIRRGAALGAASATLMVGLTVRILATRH

Compound: COc1ccc2cc1Oc1ccc(cc1)C[C@H]1c3cc(c(OC)cc3CCN1C)Oc1c(OC)c(OC)cc3c1[C@H](C2)N(C)CC3 [Tetrandrine]
- IC50 [1]: > 10 µM
- IC50 [2]: > 10 µM
- Iu,in,max/IC50 OCT1 [3]: 0.02
- IC50 [4]: 3.8 ± 1.1 µM
- IC50 [5]: > 10 µM
- IC50 [6]: 1.2 ± 0.2 µM
- IC50 [7]: 8.6 µM
- No. of transporters at major organ sites inhibited at clinical concentrations [8]: 1
- IC50 [9]: > 10 µM

Compound: Cc1oncc1C(=O)Nc1ccc(C(F)(F)F)cc1 [Leflunomide]
- IC50 [4]: > 100 µM
- IC50 [6]: 9.5 ± 5.5 µM
- IC50 [7]: > 100 µM
- No. of transporters at major organ sites inhibited at clinical concentrations [8]: 2
- IC50 [10]: 81.9 ± 36.1 µM
- IC50 [9]: > 100 µM

Compound: CCCCc1nc(Cl)c(CO)n1Cc1ccc(-c2ccccc2-c2nn[nH]n2)cc1 [Losartan]
- IC50 [2]: > 100 µM
- Cu,max/IC50 OAT3 [11]: 0.02 ^a
- IC50 [4]: > 100 µM
- IC50 [5]: 4.8 ± 1.1 µM
- IC50 [7]: > 100 µM
- potency difference of the inhibitor for [3H]-EG vs [3H]-ES as OATP1B1 probes [12]: > 10 fold
- No. of transporters at major organ sites inhibited at clinical concentrations [8]: 4
- IC50 [10]: 2.5 ± 0.7 µM

Compound: CC[C@H]1OC(=O)[C@H](C)[C@@H](O[C@H]2C[C@@](C)(OC)[C@@H](O)[C@H](C)O2)[C@H](C)[C@@H](O[C@@H]2O[C@H](C)C[C@H](N(C)C)[C@H]2O)[C@](C)(O)C[C@@H](C)CN(C)[C@H](C)[C@@H](O)[C@]1(C)O [Azithromycin]
- IC50 [1]: > 50 µM
- IC50 [2]: > 50 µM
- IC50 [4]: 18 µM
- IC50 [5]: > 50 µM
- effect on plasma levels of P-gp substrates [13]: increases plasma levels of the non‐sedating antihistamine, fexofenadine, and the anticoagulant, ximelagatran
- IC50 [6]: > 50 µM
- IC50 [7]: > 50 µM
- No. of transporters at major organ sites inhibited at clinical concentrations [8]: 1
- IC50 [9]: > 50 µM

Compound: CN1CC(=O)N2[C@H](c3ccc4c(c3)OCO4)c3[nH]c4ccccc4c3C[C@@H]2C1=O [tadalafil]
- inhibition of BCRP (in words) [14]: weak inhibitors of BCRP

Compound: CCCc1nc(C)c2c(=O)[nH]c(-c3cc(S(=O)(=O)N4CCN(CC)CC4)ccc3OCC)nn12 [vardenafil]
- inhibition of BCRP (in words) [14]: weak inhibitors of BCRP
